Measured values: patent US7189750B2, “Thiazole-based nitric oxide donors having at least two thiazole moieties and uses thereof” (priority 2004, dated 2007)
Entries after “also recorded” stand apart in the source; their conditions may differ.

Legend:
[1] = system: isolated rat aorta; assay: In vitro induction of tolerance and cross-tolerance: vasorelaxation of pre-exposed rat aortic rings; assay type: cell-based; conditions: for EC50: Rattus norvegicus; for tolerance induction in vitro: rings pre-treated with epinephrine and then with the same compound (0.44 mM)
Procedure: Aortic rings were prepared as described hereinabove, and were exposed to 0.44 mM GTN (vehicle was water:ethanol:propyleneglycol at proportional ratio of 1:1:1) for 1 hour before CCRC construction, to thereby induce tolerance to nitroglycerine. At the end of the tolerance induction period, rings were thrice washed with the path buffer (Krebs-bicrbonate) every 15 minutes for the following hour and then CCRC for vasorelaxation on GTN-induced tolerance rings were constructed for GTN (pretreated versus untreated rings, FIG. 15), in order to verify the ability to induce and measure GTN tolerance induction in vitro
Attempted induction of tolerance to the NO-donating compounds of the present invention was performed under the same conditions as for GTN. Thus, in an exemplary experiment, rings were exposed to 0.44 mM solution of Pet-3 in the attempt to induce tolerance for Pet-3. CCRC were then measured for the vasorelaxing effect of Pet-3 on a group of rings which were pre-exposed to Pet-3 as to induce tolerance to Pet-3, and for an untreated control group. The above protocol was repeated with Pet-2, Pet-7, Pet-8, Pet-12, Pet-24, Pet-43, Pet-149 and Pet-152.
Cross-tolerance studies were conducted using the same technique described above for measuring vasorelaxation of aortic rings from rats. Two groups of aortic rings samples were pre-treated with GTN, then one group was measured for vasorelaxation by GTN and the second group for vasorelaxation by Pet-12, an exemplary NO-donor according to the present invention. For the opposite cross-tolerance studies, two groups of aortic rings samples were pre-treated with Pet-12, then one group was measured for vasorelaxation by GTN and the second group for vasorelaxation by Pet-12.

[2] = system: c-GMP in slices of thoracic aorta of rats; assay: Cyclic-GMP measurement in aortic rat tissue (radioimmunoassay); assay type: cell-based; conditions: rat aorta; for cGMP Post-infusion: post-infusion (repeated treatment)
Procedure: GTN (10^−6 M) was added to the chamber and, 1 minute after exposure to the drug, rings (usually 3–5) were taken, wrapped with aluminum foil and immediately frozen in liquid nitrogen for storage. Control sample group was treated with the vehicle solution only. At the time of analysis, rings were thawed, blotted over a dry gauzed and weighted. A known weight of tissue was homogenized in 2 ml ice-cold modified Hank's balanced salt solution containing (in gram/liter) NaCl 8; KCl 0.4; glucose 1; KH2PO4 0.06; Na2HPO4 0.047; Phenol red 0.017 and further containing 25 mM EDTA (disodium salt). The homogenate was centrifuged at 4000 g (force units) for 10 minutes at 2–4° C. and the supernatant was thereafter transferred into fresh pre-cooled test tube containing 1 ml of acetonitrile. The tubes were vortex mixed for a few seconds and subsequently centrifuged at 4000 g for 5 minutes at 2–4° C., to remove the precipitated protein. Each supernatant was transferred into a clean test tube and evaporated to dryness under a stream of nitrogen at 55° C. The dry residue was reconstituted with 10 volumes of Tris-EDTA buffer pH 7.5 (0.05 M Tris containing 4 mM EDTA). Aliquots of 100 μl of the reconstituted solution in duplicate were used for c-GMP measurements using Amersham RIA kit, as is described in Haj-Yehia & Benet [Pharmacology, 1995, 273, 1, pp. 94–100]. Standard curves were plotted with six concentrations (0, 0.5, 1, 2, 4 and 8 pmoles of c-GMP per tube).
The NO-tolerance effect of GTN and NO-donor compounds according to the present invention was measured by following the production of c-GMP in slices of thoracic aorta of rats. Thus, the production of c-GMP was measured as described in the methods section above for the reference NO-donor compound GTN, and for the NO-donors of the present invention Pet-2, Pet-3, Pet-7, Pet-8, Pet-10, Pet-12, Pet-24, Pet-59, Pet-147, Pet-149, Pet-152, Pet-154 and Pet-155.

[3] = system: Male Sprague Dawley rats; assay: Induction of in vivo nitrate tolerance: cGMP in aorta of rats infused with the compound; design: species or system rat; conditions: for in vivo tolerance induction: cGMP in aorta of rats pre-treated in vivo with the compound, 200 μg/hour for 16 hours; for level of cGMP following a repeated treatment in vivo: aorta of rats pre-treated in vivo, re-exposed to 1 μM
Procedure: For c-GMP levels and tolerance development, the rat's thoracic aorta was isolated after exposure to the tested compound in vivo, and measured as described above in the in vitro assays.
Male Sprague Dawley rats (220 to 250 grams) were housed under constant temperature and humidity conditions. Light was maintained at a 12/12 light dark cycle. Except for 12 hours before the experiment, when food fasting was initiated, all rats had free access to standard rat pellet diet and tap water. The animals were anesthetized by intraperitoneal injection of ketamine and xylazine combination (50 and 10 milligram per kilogram, respectively). […] The catheters were filled with normal saline solution containing 1000 IU/ml of heparin and plugged with a metal pin. Catheters were externalized to the back of the neck region and secured by a polyester felt disk.
After implantation, the rats were individually housed until they regained their preoperative weight and appeared healthy (3 to 4 days post-operation). At this time point (day 0), an osmotic mini-pump (Alza Corp., Palo Alto, Calif.) delivering constant volume (10 μl/hour) of vehicle or drug was connected to one of the intravenous catheters.
For inducing tolerance to the tested NO-donor according to the present invention, the animals received 200 μg/hour of the tested compound for 16 hours (short-term-induced tolerance). A similar number of animals were processed by the same surgical procedure and received the vehicle alone (10 μl/hour of a solution consisting of 30% ethanol and 30% propylene glycol in sterile distilled water for injection).
At the end of the infusion periods used for the development of tolerance (16 hour), the rats were anesthetized as described above, the two catheters were externalized and the delivering catheters were disconnected from the mini-pump. The abdomen was opened by midline incision and the thoracic aorta were isolated, washed and cleaned from the surrounding tissues. Strips of the treated aortas were pooled in chambers containing Krebs-Hanseliet buffer (10 ml), and exposed to 1 μM of the tested NO-donor (final concentration) for 120 seconds. The tissues were quickly collected and frozen in liquid nitrogen for cGMP measurement, described hereinabove.

[4] = system: isolated rat aorta; assay: In vitro vasorelaxation of epinephrine-contracted rat aortic rings (CCRC); assay type: cell-based
Description: Male Sprague Dawley rats were anaesthetized using intraperitoneal injection of ketamine and xylazine (50 and 10 milligram per kilogram, respectively) and the thoracic aorta, the large upper portion of the descending aorta, starting at the caudal border of the chest bone, was removed thereafter, while carefully removing the paraadventetial tissue surrounding the vessel. Aortae were cut into rings of 4–5 millimeters and mounted onto the tissue path. The path buffer (Krebs-bicrbonate) was constantly gassed with carbogen and maintained at 37° C. The rings were preloaded under 2 g tension and equilibrated for 90 minutes, while refreshing the buffer every 15 minutes. After stabilization, the rings were contracted with epinephrine (1 μM). Cumulative Concentration-Response Curves (CCRC) were measured for the vasorelaxing effect induced by adding various concentrations, ranging from 10^−10 M to 10^−5 M of Pet-2, Pet-3, Pet-7, Pet-8, Pet-12, Pet-24, Pet-43, Pet-59, Pet-147, Pet-152 and Pet-154, and glyceryltrinitrate (GTN), according to the procedure described in Feelich et al., Molecular Pharmacology, 56:243–253 (1999). The vehicle, which was used for this experiment was water:ethanol:propyleneglycol at proportional ratio of 1:1:1.
The vasorelaxing effect of the thiazole-derived NO-donors according to the present invention was measured on slices of thoracic aorta of rats contracted with epinephrine, as described hereinabove.

[5] = system: anesthetized hypertensive Sprague-Dawley male rats; assay: Hypotensive effects: mean arterial pressure after iv bolus in phenylephrine-treated rats; assay type: in vivo; conditions: rat
Procedure: Mean arterial pressure (MAP) was monitored and determined during bolus infusion of Pet-2, Pet-3, Pet-7, Pet-8, Pet-12 and Pet-13. Briefly, polyethylene catheters (PE50) were inserted into the carotid artery and into the jugular vein of anesthetized hypertensive Sprague-Dawley male rats (200–300 grams). A blood pressure recorder was placed within the carotid artery. Phenylephrine (0.1 mg) was then injected and the mean arterial blood pressure (MABP) was monitored continuously until a stable baseline was reached. The hypotensive effects of intravenous (iv) bolus doses (0.1 mg of each tested compound) administered intravenously at the jugular vein in minimal volume of vehicle (0.2 ml per dose) were evaluated. Five minutes were allowed between each dose, during which the maximal decrease in MAP was recorded and a dose-response graph comparing the hypotensive effect of the compounds was constructed.

[6] = vasorelaxation of rings pre-exposed to 0.44 mM of the same compound for 1 hour, given as negative log value, read-out: EC50 (converted)
[7] = vasorelaxation of rings pre-exposed to 0.44 mM of the same compound for 1 hour, read-out: Concentration
[8] = vasorelaxation, rat aortic rings contracted with 1 μM epinephrine, 10^−10 M to 10^−5 M, read-out: Concentration
[9] = vasorelaxation, rat aortic rings contracted with 1 μM epinephrine, given as negative log value, read-out: EC50 (converted)

| SMILES | EC50 [1, 6] [nM] | EC50 [1, 7] [nM] | vasorelaxation in rings pre-treated with GTN (cross-tolerance, words) ([1]; rings made tolerant to GTN) | tolerance after pre-treatment with Pet-12, to itself and to GTN ([1]; rings pre-treated with Pet-12) | tolerance induction in vitro [1] | cGMP Post-infusion [2] [pmol/g tissue] | cGMP Pre-infusion [2] [pmol/g tissue] | in vivo tolerance induction [3] | EC50 [4, 8] [nM] | EC50 [4, 9] [nM] | hypotensive effect on MAP following successive administrations [5] | c-GMP level following a repeated treatment [2] | level of cGMP following a repeated treatment in vivo [3] | EC50 ([1]; 1 h) [nM] | EC50 ([1]; 1 h, read-out: Concentration) [nM] | EC50 ([4]; Rattus norvegicus) [nM] | EC50 ([4]; Rattus norvegicus, read-out: Concentration) [nM] | vasorelaxation effect as compared with glyceryltrinitrate ([4]; isolated rat aorta, 1 μM epinephrine) |
| --- | --- | --- | --- | --- | --- | --- | --- | --- | --- | --- | --- | --- | --- | --- | --- | --- | --- | --- |
| Cc1nc(-c2cccnc2)sc1CCO[N+](=O)[O-] [Pet-12, 3-[4-Methyl-5-(2-nitrooxy-ethyl)-thiazole-2-yl]-pyridine] | 63.1 | 63.1 | absence of tolerance induction effect; also recorded: no effect | absence of tolerance induction effect; also recorded: does not evoke tolerance | absence of tolerance induction | 112 ± 12 | 127 ± 11 | absence of tolerance induction; also recorded: absence of tolerance effect; also recorded: lack of tolerance induction | 39.8 | 39.8 | – | – | – | – | – | – | – | – |
| O=[N+]([O-])OCC(CO[N+](=O)[O-])O[N+](=O)[O-] [GTN, glyceryl trinitrate, reference compound] | 31.6 | 44.7 | – | – | tolerance induced | 45 ± 12 | 127 ± 11 | tolerance inducing effect | 44.7 | 28.2 | attenuation | significantly reduced | decreased | – | – | – | – | – |
| CCc1nc(C)c(CCO[N+](=O)[O-])s1 [Pet-2, 2-Ethyl-4-methyl-5-(2-nitrooxy-ethyl)-thiazole] | – | – | – | – | – | 140 ± 13 | 143 ± 13 | absence of tolerance induction; also recorded: absence of tolerance effect | – | – | – | – | remained substantially unchanged | 39.8 | 39.8 | 25.1 | 25.1 | superior |
